Experimental data as given in US6358885B1, “Substituted phenylheterocyclic herbicides” (Mississippi State University, priority 1992, dated 2002).

Key:
Test in all cases: Test B preemergence/postemergence greenhouse plant response rating 0 to 10
lambsquarters = type: in vivo, Chenopodium album; conditions: 0 to 10 scale
Source text: (§1) Seeds of barley (Hordeum vulgare), barnyardgrass (Echinochloa crus-galli), bedstraw (Galium aparine), blackgrass (Alopecurus myosuroides), […] (Bromus secalinus), chickweed (Stellaria media), cocklebur (Xanthium pensylvanicum), corn (Zea mays), cotton (Gossypium hirsutum), crabgrass (Digitaria spp.), giant foxtail (Setaria faberii), lambsquarters (Chenopodium album), morningglory (Ipomoea hederacea), rape (Brassica napus), rice (Oryza sativa), sorghum (Sorghum bicolor), soybean (Glycine max), sugar beet (Beta vulgaris), velvetleaf (Abutilon theophrasti), wheat (Triticum aestivum), wild buckwheat (Polygonum convolvulus), and wild oat (Avena fatua) and purple nutsedge. (Cyperus rotundus) tubers were planted and treated preemergence with test chemicals dissolved in a non-phytotoxic solvent. At the same time, these crop and weed species were also treated with postemergence applications of test chemicals. Plants ranged in height from two to eighteen cm (one to four leaf stage) for postemergence treatments. Treated plants and controls were maintained in a greenhouse for twelve to sixteen days, after which all species were compared to controls and visually evaluated. […] A dash (-) response means no test result.

purple nutsedge = type: in vivo, Cyperus rotundus; conditions: 0 to 10 scale
Source text: as §1

rape = type: in vivo, Brassica napus; conditions: 0 to 10 scale
Source text: as §1

barnyardgrass = type: in vivo, Echinochloa crus-galli; conditions: 0 to 10 scale
Source text: as §1

barley = type: in vivo, Hordeum vulgare; conditions: 0 to 10 scale
Source text: as §1

sugar beet = type: in vivo, Beta vulgaris; conditions: 0 to 10 scale
Source text: as §1

chickweed = type: in vivo, Stellaria media; conditions: Rate 200 g/ha, 0 to 10 scale
Source text: as §1

sorghum = type: in vivo, Sorghum bicolor; conditions: 0 to 10 scale
Source text: as §1

bedstraw = type: in vivo, Galium aparine; conditions: 0 to 10 scale
Source text: as §1

morningglory = type: in vivo, Ipomoea hederacea; conditions: 0 to 10 scale
Source text: as §1

velvetleaf = type: in vivo, Abutilon theophrasti; conditions: 0 to 10 scale
Source text: as §1

soybean = type: in vivo, Glycine max; conditions: 0 to 10 scale
Source text: as §1

giant foxtail = type: in vivo, Setaria faberii; conditions: 0 to 10 scale
Source text: as §1

rice = type: in vivo, Oryza sativa; conditions: 0 to 10 scale
Source text: as §1

wheat = type: in vivo, Triticum aestivum; conditions: 0 to 10 scale
Source text: as §1

cheatgrass = type: in vivo, Bromus secalinus; conditions: 0 to 10 scale
Source text: as §1

blackgrass = type: in vivo, Alopecurus myosuroides; conditions: 0 to 10 scale
Source text: as §1

crabgrass = type: in vivo, Digitaria spp.; conditions: 0 to 10 scale
Source text: as §1

wild oat = type: in vivo, Avena fatua; conditions: 0 to 10 scale
Source text: as §1

corn = type: in vivo, Zea mays; conditions: 0 to 10 scale
Source text: as §1

wild buckwheat = type: in vivo, Polygonum convolvulus; conditions: 0 to 10 scale
Source text: as §1

cocklebur = type: in vivo, Xanthium pensylvanicum; conditions: 0 to 10 scale
Source text: as §1

cotton = type: in vivo, Gossypium hirsutum; conditions: 0 to 10 scale
Source text: as §1

With `Clc1ccc(-c2nn3c(c2Cl)CCCC3)c(Cl)c1` [Compound 35] the “Plant response rating, Lambsquarter” value (lambsquarters; POSTEMERGENCE, Rate 50 g/ha) was 9, the “Plant response rating, Lambsquarter” value (lambsquarters; PREEMERGENCE, Rate 50 g/ha) was 10 and the “Plant response rating, Lambsquarter” value (lambsquarters; Rate 200 g/ha, POSTEMERGENCE) was 10. For the same compound, the “Plant response rating, Lambsquarter” value (lambsquarters; Rate 200 g/ha, PREEMERGENCE) was 10, the “Plant response rating, Nutsedge” value (purple nutsedge; POSTEMERGENCE, Rate 50 g/ha) was 1 and the “Plant response rating, Nutsedge” value (purple nutsedge; PREEMERGENCE, Rate 50 g/ha) was 0. For the same compound, the “Plant response rating, Nutsedge” value (purple nutsedge; Rate 200 g/ha, POSTEMERGENCE) was 3, the “Plant response rating, Nutsedge” value (purple nutsedge; Rate 200 g/ha, PREEMERGENCE) was 2 and the “Plant response rating, Rape” value (rape; POSTEMERGENCE, Rate 50 g/ha) was 6. For the same compound, the “Plant response rating, Rape” value (rape; PREEMERGENCE, Rate 50 g/ha) was 0, the “Plant response rating, Rape” value (rape; Rate 200 g/ha, POSTEMERGENCE) was 9 and the “Plant response rating, Barnyardgrass” value (barnyardgrass; POSTEMERGENCE, Rate 50 g/ha) was 5. The “Plant response rating, Barnyardgrass” value (barnyardgrass; POSTEMERGENCE, Rate 200 g/ha) was 9, the “Plant response rating, Barnyardgrass” value (barnyardgrass; PREEMERGENCE, Rate 50 g/ha) was 1 and the “Plant response rating, Barnyardgrass” value (barnyardgrass; Rate 200 g/ha, PREEMERGENCE) was 7. For the same compound, the “Plant response rating, Barley” value (barley; POSTEMERGENCE, Rate 50 g/ha) was 2, the “Plant response rating, Barley” value (barley; POSTEMERGENCE, Rate 200 g/ha) was 4 and the “Plant response rating, Barley” value (barley; PREEMERGENCE, Rate 50 g/ha) was 0. For the same compound, the “Plant response rating, Barley” value (barley; Rate 200 g/ha, PREEMERGENCE) was 0, the “Plant response rating, Sugar beet” value (sugar beet; POSTEMERGENCE, Rate 50 g/ha) was 9 and the “Plant response rating, Sugar beet” value (sugar beet; PREEMERGENCE, Rate 50 g/ha) was 0. For the same compound, the “Plant response rating, Sugar beet” value (sugar beet; Rate 200 g/ha, POSTEMERGENCE) was 10, the “Plant response rating, Sugar beet” value (sugar beet; Rate 200 g/ha, PREEMERGENCE) was 4 and the “Plant response rating, Chickweed” value (chickweed; POSTEMERGENCE) was 3. The “Plant response rating, Chickweed” value (chickweed; PREEMERGENCE) was 9, the “Plant response rating, Sorghum” value (sorghum; POSTEMERGENCE, Rate 50 g/ha) was 5 and the “Plant response rating, Sorghum” value (sorghum; PREEMERGENCE, Rate 50 g/ha) was 0. For the same compound, the “Plant response rating, Sorghum” value (sorghum; Rate 200 g/ha, POSTEMERGENCE) was 6, the “Plant response rating, Sorghum” value (sorghum; Rate 200 g/ha, PREEMERGENCE) was 3 and the “Plant response rating, Bedstraw” value (bedstraw; POSTEMERGENCE, Rate 50 g/ha) was 7. The “Plant response rating, Bedstraw” value (bedstraw; POSTEMERGENCE, Rate 200 g/ha) was 9, the “Plant response rating, Bedstraw” value (bedstraw; PREEMERGENCE, Rate 50 g/ha) was 0 and the “Plant response rating, Bedstraw” value (bedstraw; Rate 200 g/ha, PREEMERGENCE) was 8. The “Plant response rating, Morningglory” value (morningglory; POSTEMERGENCE, Rate 50 g/ha) was 5, the “Plant response rating, Morningglory” value (morningglory; PREEMERGENCE, Rate 50 g/ha) was 0 and the “Plant response rating, Morningglory” value (morningglory; Rate 200 g/ha, POSTEMERGENCE) was 7. For the same compound, the “Plant response rating, Morningglory” value (morningglory; Rate 200 g/ha, PREEMERGENCE) was 2, the “Plant response rating, Velvetleaf” value (velvetleaf; POSTEMERGENCE, Rate 50 g/ha) was 8 and the “Plant response rating, Velvetleaf” value (velvetleaf; PREEMERGENCE, Rate 50 g/ha) was 2. The “Plant response rating, Velvetleaf” value (velvetleaf; Rate 200 g/ha, POSTEMERGENCE) was 10, the “Plant response rating, Velvetleaf” value (velvetleaf; Rate 200 g/ha, PREEMERGENCE) was 10 and the “Plant response rating, Soybean” value (soybean; POSTEMERGENCE, Rate 50 g/ha) was 4. The “Plant response rating, Soybean” value (soybean; PREEMERGENCE, Rate 50 g/ha) was 0, the “Plant response rating, Soybean” value (soybean; Rate 200 g/ha, POSTEMERGENCE) was 5 and the “Plant response rating, Soybean” value (soybean; Rate 200 g/ha, PREEMERGENCE) was 3. For the same compound, the “Plant response rating, Giant foxtail” value (giant foxtail; POSTEMERGENCE, Rate 50 g/ha) was 4, the “Plant response rating, Giant foxtail” value (giant foxtail; PREEMERGENCE, Rate 50 g/ha) was 2 and the “Plant response rating, Giant foxtail” value (giant foxtail; Rate 200 g/ha, POSTEMERGENCE) was 7. For the same compound, the “Plant response rating, Giant foxtail” value (giant foxtail; Rate 200 g/ha, PREEMERGENCE) was 9, the “Plant response rating, Rice” value (rice; POSTEMERGENCE, Rate 50 g/ha) was 5 and the “Plant response rating, Rice” value (rice; PREEMERGENCE, Rate 50 g/ha) was 0. The “Plant response rating, Rice” value (rice; Rate 200 g/ha, POSTEMERGENCE) was 6, the “Plant response rating, Rice” value (rice; Rate 200 g/ha, PREEMERGENCE) was 2 and the “Plant response rating, Wheat” value (wheat; POSTEMERGENCE, Rate 50 g/ha) was 2. For the same compound, the “Plant response rating, Wheat” value (wheat; PREEMERGENCE, Rate 50 g/ha) was 0, the “Plant response rating, Wheat” value (wheat; Rate 200 g/ha, POSTEMERGENCE) was 5 and the “Plant response rating, Wheat” value (wheat; Rate 200 g/ha, PREEMERGENCE) was 7. For the same compound, the “Plant response rating, Cheatgrass” value (cheatgrass; POSTEMERGENCE, Rate 50 g/ha) was 3, the “Plant response rating, Cheatgrass” value (cheatgrass; POSTEMERGENCE, Rate 200 g/ha) was 5 and the “Plant response rating, Cheatgrass” value (cheatgrass; PREEMERGENCE, Rate 50 g/ha) was 1. For the same compound, the “Plant response rating, Cheatgrass” value (cheatgrass; Rate 200 g/ha, PREEMERGENCE) was 5, the “Plant response rating, Blackgrass” value (blackgrass; POSTEMERGENCE, Rate 50 g/ha) was 3 and the “Plant response rating, Blackgrass” value (blackgrass; POSTEMERGENCE, Rate 200 g/ha) was 4. For the same compound, the “Plant response rating, Blackgrass” value (blackgrass; PREEMERGENCE, Rate 50 g/ha) was 0, the “Plant response rating, Blackgrass” value (blackgrass; Rate 200 g/ha, PREEMERGENCE) was 4 and the “Plant response rating, Crabgrass” value (crabgrass; POSTEMERGENCE, Rate 50 g/ha) was 3. For the same compound, the “Plant response rating, Crabgrass” value (crabgrass; POSTEMERGENCE, Rate 200 g/ha) was 6, the “Plant response rating, Crabgrass” value (crabgrass; PREEMERGENCE, Rate 50 g/ha) was 4 and the “Plant response rating, Crabgrass” value (crabgrass; Rate 200 g/ha, PREEMERGENCE) was 9. The “Plant response rating, Wild oat” value (wild oat; POSTEMERGENCE, Rate 50 g/ha) was 3, the “Plant response rating, Wild oat” value (wild oat; PREEMERGENCE, Rate 50 g/ha) was 0 and the “Plant response rating, Wild oat” value (wild oat; Rate 200 g/ha, POSTEMERGENCE) was 4. The “Plant response rating, Corn” value (corn; POSTEMERGENCE, Rate 50 g/ha) was 4, the “Plant response rating, Corn” value (corn; POSTEMERGENCE, Rate 200 g/ha) was 7 and the “Plant response rating, Corn” value (corn; PREEMERGENCE, Rate 50 g/ha) was 0. The “Plant response rating, Corn” value (corn; Rate 200 g/ha, PREEMERGENCE) was 3, the “Plant response rating, Wild buckwheat” value (wild buckwheat; POSTEMERGENCE, Rate 50 g/ha) was 6 and the “Plant response rating, Wild buckwheat” value (wild buckwheat; PREEMERGENCE, Rate 50 g/ha) was 0. The “Plant response rating, Wild buckwheat” value (wild buckwheat; Rate 200 g/ha, POSTEMERGENCE) was 10, the “Plant response rating, Wild buckwheat” value (wild buckwheat; Rate 200 g/ha, PREEMERGENCE) was 1 and the “Plant response rating, Cocklebur” value (cocklebur; POSTEMERGENCE, Rate 50 g/ha) was 5. The “Plant response rating, Cocklebur” value (cocklebur; POSTEMERGENCE, Rate 200 g/ha) was 7, the “Plant response rating, Cocklebur” value (cocklebur; PREEMERGENCE, Rate 50 g/ha) was 0 and the “Plant response rating, Cocklebur” value (cocklebur; Rate 200 g/ha, PREEMERGENCE) was 2. For the same compound, the “Plant response rating, Cotton” value (cotton; POSTEMERGENCE, Rate 50 g/ha) was 9, the “Plant response rating, Cotton” value (cotton; POSTEMERGENCE, Rate 200 g/ha) was 10 and the “Plant response rating, Cotton” value (cotton; PREEMERGENCE, Rate 50 g/ha) was 0. The “Plant response rating, Cotton” value (cotton; Rate 200 g/ha, PREEMERGENCE) was 4.
